According to doi:10.1101/2022.06.02.493408v1 (biorxiv, 2022):

Biological target: T1, WT BetP (AMP-BetP) (Corynebacterium glutamicum, UniProt P54582)
T1 sequence (P54582 1-595): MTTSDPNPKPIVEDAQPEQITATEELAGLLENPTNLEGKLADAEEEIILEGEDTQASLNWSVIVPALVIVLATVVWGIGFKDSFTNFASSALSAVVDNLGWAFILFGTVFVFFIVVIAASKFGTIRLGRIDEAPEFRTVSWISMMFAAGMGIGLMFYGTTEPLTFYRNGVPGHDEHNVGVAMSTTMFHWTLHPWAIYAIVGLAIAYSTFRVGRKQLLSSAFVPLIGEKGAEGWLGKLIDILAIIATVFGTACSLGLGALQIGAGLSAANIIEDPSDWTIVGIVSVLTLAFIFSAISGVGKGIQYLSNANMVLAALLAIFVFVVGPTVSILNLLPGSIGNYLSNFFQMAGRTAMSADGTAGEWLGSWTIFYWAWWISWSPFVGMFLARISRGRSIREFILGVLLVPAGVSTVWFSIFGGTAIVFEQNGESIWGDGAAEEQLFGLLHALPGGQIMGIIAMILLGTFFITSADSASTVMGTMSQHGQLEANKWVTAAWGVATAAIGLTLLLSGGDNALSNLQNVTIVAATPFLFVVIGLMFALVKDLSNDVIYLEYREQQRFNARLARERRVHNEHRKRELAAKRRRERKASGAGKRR
Assay: biochemical

Kd: 188 ± 34 µM
SMILES: C[N+](C)(C)CC(=O)[O-] [betaine]
